Measured values as given in paper PMC10837065 (Current Research in Insect Science, 2024).

Columns and labels:
PficOrco/PficOR6 = assay: Fluo4-AM calcium fluorescence, FlexStation-3, HEK293 cells; format: cell-based, Planococcus ficus; conditions: agonist; doxycycline-induced cells; 0.5 % DMSO
PficOrco/PficOR8 = assay: as above; format: cell-based, Planococcus ficus; conditions: agonist; doxycycline-induced cells; 0.5 % DMSO

Structure (SMILES)	EC50 (PficOrco/PficOR6)	EC50 (PficOrco/PficOR8)
C=C(C)C(CC=C(C)C)COC(=O)C=C(C)C (stereo not drawn) [lavandulyl senecioate]	4.6 µM	52.6 µM
CCCC(=O)OCC(CC=C(C)C)=C(C)C [2-isopropyliden-5-methyl-4-hexen-1-yl butyrate]	–	8.6 µM
